# Source: patent publication US20110082212A1, “MULTI-S[…] ANDROGEN RECEPTOR MODULATORS AND METHODS OF USE THEREOF” (priority 2002, published 2011)
# Where “and” joins values, the source holds several entries; their conditions need not be identical. Equal entries are not always repeated.
# Legend:
# [1] = test system: castrated male rats (prostate, seminal vesicles, levator ani muscle); test: Androgenic and anabolic activity of compounds 1 and 2 in castrated rat model (organ weights); type: in vivo, Sprague-Dawley rats; conditions: 14 days; for Seminal Vesicles weight: intact 101 ± 26.8, castrated 8.1 ± 1.8; for Levator Ani Muscle weight: intact 102 ± 8.1, castrated 40.9 ± 9.4; for Prostate weight: intact 100 ± 14.3, castrated 6.2 ± 2.5
# Source text: Intact Controls (not castrated, untreated) and Castrated Controls (castrated, untreated) were used as the control groups.
# androgen receptor = target: T1, androgen receptor (Rattus norvegicus, UniProt P15207); test: Androgen receptor binding affinities; conditions: for RBA: relative binding affinity, androgen receptor
# T1 construct: from tissue; host or cells: Rat ventral prostate cytosol
# T1 sequence (P15207 1-902): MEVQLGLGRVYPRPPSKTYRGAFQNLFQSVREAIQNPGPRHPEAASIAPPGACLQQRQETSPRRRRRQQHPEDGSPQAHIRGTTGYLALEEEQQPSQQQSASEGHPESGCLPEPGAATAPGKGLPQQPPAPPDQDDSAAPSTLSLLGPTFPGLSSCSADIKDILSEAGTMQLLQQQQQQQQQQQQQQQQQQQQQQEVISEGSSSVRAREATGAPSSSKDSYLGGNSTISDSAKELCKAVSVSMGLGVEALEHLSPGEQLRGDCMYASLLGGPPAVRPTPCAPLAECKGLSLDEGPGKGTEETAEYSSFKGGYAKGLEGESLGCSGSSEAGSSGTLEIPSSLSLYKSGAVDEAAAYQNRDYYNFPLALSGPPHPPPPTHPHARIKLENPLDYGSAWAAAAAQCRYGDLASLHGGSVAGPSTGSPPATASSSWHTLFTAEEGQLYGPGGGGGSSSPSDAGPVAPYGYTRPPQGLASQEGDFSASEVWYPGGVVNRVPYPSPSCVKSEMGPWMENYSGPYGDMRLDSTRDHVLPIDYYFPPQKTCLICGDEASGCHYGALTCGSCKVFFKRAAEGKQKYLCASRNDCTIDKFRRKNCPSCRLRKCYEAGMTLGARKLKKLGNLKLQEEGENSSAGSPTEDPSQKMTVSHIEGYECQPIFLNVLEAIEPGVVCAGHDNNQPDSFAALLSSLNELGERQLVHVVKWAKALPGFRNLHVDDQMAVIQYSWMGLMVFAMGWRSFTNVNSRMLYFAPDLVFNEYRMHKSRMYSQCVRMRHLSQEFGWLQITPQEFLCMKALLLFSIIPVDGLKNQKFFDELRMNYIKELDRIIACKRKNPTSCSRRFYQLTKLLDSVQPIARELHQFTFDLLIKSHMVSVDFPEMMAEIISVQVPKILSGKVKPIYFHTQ
# serum testosterone = test: Serum testosterone concentrations in intact male rats (EIA); type: in vivo; conditions: 0.5 mg/day, 14 days, individual animals (n=5/group), detection limit 0.04 ng/mL, intact rats 4.47±1.66
# Method: (§1) Forty-five male SD rats, weighing approximately 200 g, were randomly divided into nine groups with five rats per group. One day before treatment, groups 1 through 8 were castrated via a scrotal incision under anesthesia. Group 9 served as an intact vehicle control. Compound 7 was dissolved in a vehicle containing DMSO (5%, v/v) in PEG 300. Groups 1 through 7 received daily subcutaneous injections of compound 7 at a dose rate of 0.05, 0.1, 0.3, 0.5, 0.75, 1, and 3 mg/day, respectively. Groups 8 and 9 received vehicle. […] This dose rate was chosen based on the results from the aforementioned study in castrated rats. Rats were sacrificed after 14 days treatment. Serum samples were collected and stored at −80° C. The ventral prostate, seminal vesicles, and levator ani muscle were removed, cleared of extraneous tissue, and weighed. All organ weights were normalized to body weight and compared. The weights of the prostate and seminal vesicles were used to evaluate androgenic activity, while the levator ani muscle weight was used as a measurement of anabolic activity.
# [2] = test system: castrated male rats (ventral prostate, seminal vesicles, levator ani muscle); test: Androgenic and anabolic activity of compound 7 in castrated male rats (organ weights, dose response); type: in vivo, SD rats; conditions: 14 days
# Method: as §1
# [3] = test system: intact male rats (ventral prostate, seminal vesicles, levator ani muscle); test: Pharmacologic activity of TP and compound 7 in intact male rats (organ weights); type: in vivo; conditions: 0.5 mg/day, 14 days
# Method: as §1
# LH and FSH levels = test: Serum LH and FSH levels in castrated rats treated with compound 7 (RIA); type: in vivo, SD rats
# Method: as §1
# [4] = daily s.c., nonlinear regression of dose-response
smiles,measurement,setting,value
C[C@](O)(COc1ccc(F)c(F)c1)C(=O)Nc1ccc([N+](=O)[O-])c(C(F)(F)F)c1 [Compound 1],levator ani muscle weight compared with intact animals,[1]; 1 mg/d,maintain the levator ani muscle weight of castrated animals in the same level as that of intact animals
same,Seminal Vesicles weight,[1]; 1 mg/day via osmotic pump,30.9 ± 5.7
same,Levator Ani Muscle weight,[1]; 1 mg/day via osmotic pump,122.5 ± 10.4
same,Prostate weight,"[1]; 1 mg/day via osmotic pump, normalized to body weight",40.3 ± 10.0
same,Prostate weight,"[1]; 1 mg/day, daily injection",33.1 ± 8.5
same,Seminal Vesicles weight,"[1]; 1 mg/day, daily injection",23.6 ± 8.8
same,Levator Ani Muscle weight,"[1]; 1 mg/day, daily injection",112.8 ± 9.4
same,RBA,androgen receptor,17.6%
C[C@](O)(COc1c(F)c(F)c(F)c(F)c1F)C(=O)Nc1ccc([N+](=O)[O-])c(C(F)(F)F)c1 [Compound 2],Prostate weight,"[1]; 1 mg/day, daily injection",7.2 ± 1.4
same,Seminal Vesicles weight,"[1]; 1 mg/day, daily injection",7.2 ± 0.9
same,Levator Ani Muscle weight,"[1]; 1 mg/day, daily injection",55.83 ± 2.84
same,RBA,androgen receptor,13.3%
C[C@](O)(COc1ccc(F)c(F)c1F)C(=O)Nc1ccc([N+](=O)[O-])c(C(F)(F)F)c1 [Compound 3],Ki,androgen receptor,11.3 ± 1.1 nM
same,RBA,androgen receptor,3.1%
C[C@](O)(COc1ccc(F)cc1F)C(=O)Nc1ccc([N+](=O)[O-])c(C(F)(F)F)c1 [Compound 5],Ki,androgen receptor,3.2 ± 0.3 nM
same,RBA,androgen receptor,10.9%
C[C@](O)(COc1cc(F)cc(F)c1F)C(=O)Nc1ccc([N+](=O)[O-])c(C(F)(F)F)c1 [Compound 6],Ki,androgen receptor,9.1 ± 0.6 nM
same,RBA,androgen receptor,3.4%
C[C@](O)(COc1ccc(Cl)c(F)c1)C(=O)Nc1ccc([N+](=O)[O-])c(C(F)(F)F)c1 [Compound 7],serum testosterone concentration,serum testosterone,< 0.04 ng/mL and 0.11 ng/mL and 0.46 ng/mL
same,"organ weights (ventral prostate, seminal vesicles, levator ani muscle) restored relative to intact controls",[2]; 3 mg/day s.c.,up to 130%
same,ED50 in levator ani muscle,[2]; [4],0.17 ± 0.04 mg/day
same,ED50 in prostate,[2]; [4],0.77 ± 0.06 mg/day
same,ED50 in seminal vesicle,[2]; [4],0.88 ± 0.14 mg/day
same,effect on levator ani muscle weight,[3],maintained levator ani muscle weight
same,effect on size of prostate and seminal vesicles,[3],reduced the size of the prostate and seminal vesicles
same,Ki,androgen receptor,4.9 ± 0.3 nM
same,RBA,androgen receptor,9.1%
same,lowest dose reversing FSH levels back to physiologic levels,LH and FSH levels,0.5 mg/day
same,lowest dose reversing LH levels back to physiologic levels,LH and FSH levels,0.3 mg/day
same,FSH,"LH and FSH levels; 0.1 mg/day, intact control 11.2 ± 2.0, castrated control 63.4 ± 5.0",53.0 ± 5.1 ^I ng/mL
same,LH,"LH and FSH levels; 0.1 mg/day, intact control <0.2, castrated control 8.4 ± 2.5",3.6 ± 0.8 ^I ng/mL
same,FSH,LH and FSH levels; 0.3 mg/day,26.6 ± 8.9 ^I ng/mL
same,LH,LH and FSH levels; 0.3 mg/day,<0.2 ^C ng/mL
same,FSH,LH and FSH levels; 0.5 mg/day,12.4 ± 1.1 ^C ng/mL
same,LH,LH and FSH levels; 0.5 mg/day,<0.2 ^C ng/mL
same,FSH,LH and FSH levels; 0.75 mg/day,12.8 ± 1.6 ^C ng/mL
same,LH,LH and FSH levels; 0.75 mg/day,<0.2 ^C ng/mL
C[C@](O)(COc1ccc(F)c(Cl)c1)C(=O)Nc1ccc([N+](=O)[O-])c(C(F)(F)F)c1 [Compound 8],Ki,androgen receptor,10.3 ± 2 nM
same,RBA,androgen receptor,4.3%
C[C@](O)(COc1ccc(Cl)c(Cl)c1)C(=O)Nc1ccc([N+](=O)[O-])c(C(F)(F)F)c1 [Compound 9],Ki,androgen receptor,1 ± 0.09 nM
same,RBA,androgen receptor,20.2%
C[C@](O)(COc1ccccc1F)C(=O)Nc1ccc([N+](=O)[O-])c(C(F)(F)F)c1 [Compound 10],Ki,androgen receptor,3.4 ± 0.34 nM
same,RBA,androgen receptor,5.9%
C[C@](O)(COc1c(F)cc(F)cc1F)C(=O)Nc1ccc([N+](=O)[O-])c(C(F)(F)F)c1 [Compound 11],Ki,androgen receptor,10.3 ± 2 nM
"CCC(=O)O[C@H]1CC[C@H]2[C@@H]3CCC4=CC(=O)CC[C@]4(C)[C@H]3CC[C@]12C [TP, testosterone propionate, reference compound]","effect on growth of prostate, seminal vesicles and levator ani muscle",[3],stimulated growth in all three organs
